Measurements from paper PMC6591251, “Discovery of potent necroptosis inhibitors targeting RIPK1 kinase activity for the treatment of inflammatory disorder and cancer metastasis” (Cell Death & Disease, 2019).
Entries after “also recorded” stand apart in the source; their conditions may differ.

Tests used:
[1] = tested on: TNF-induced systemic inflammatory response syndrome; assay: TNF-induced SIRS mouse model; format: in vivo, C57BL/6 mice; conditions: for protection against TNFα-induced lethal shock: PK6 30 mg/kg, PK68 1 mg/kg ip, 15 min before TNF-α 6 μg per mouse
Method: Necroptosis is involved in a variety of inflammatory disorders such as TNF-induced SIRS[11],[12]. We therefore evaluated the therapeutic effect of PK68 in a mouse model of TNF-induced SIRS. C57BL/6 mice were treated with vehicle, PK6, or PK68 for 15 min prior to intravenous injection of mouse TNFα (6 µg TNFα per mouse). […] SIRS is associated with systemic release of proinflammatory cytokines and tissue injuries. […] Moreover, TNF-induced damage of the colon was attenuated by the treatment of PK68 (Fig. 7d).
Fig. 7 PK68 ameliorates TNF-induced systemic inflammatory response syndrome. C57BL/6 mice (n = 11) were injected with vehicle, PK6 (30 mg/kg), or PK68 (1 mg/kg) via intraperitoneal injection for 15 min, followed by the tail intravenous injection of mouse TNF-α (6 μg per mouse). a, b The survival rate (a) and body temperature loss (b) were monitored. c, d C57BL/6 mice (n = 5) were injected with vehicle or PK68 (1 mg/kg) for 15 min prior to the injection of mouse TNF-α. The mice were sacrificed 4 h after TNF-α administration, the serum concentration of IL-1β was measured by ELISA kits (c), and histology of the colon tissue was analyzed by H&E staining and the representative images are shown (d). The serum or colon tissue from C57BL/6 mice was used as the control (Normal). Magnification: ×100 (left) and ×200 (right). Data represent mean value ± standard deviation. *P < 0.05. **P < 0.01. ***P < 0.001
PK6 and PK68 were diluted into sterile PBS. C57BL/6 mice were pretreated with vehicle, PK6 (30 mg/kg), or PK68 (1 mg/kg) via intraperitoneal injection for around 15 min and then challenged with mouse TNF-α (6 μg per mouse) via tail intravenous injection. Mice mortality was continuously monitored till 72 h after TNF-α administration. The serum and colon tissue are collected at 4 h post TNF-α challenge.

[2] = tested on: phosphorylation of RIPK1, RIPK3, and MLKL in HT-29 cells; assay: Western blot of necroptotic signaling after T/S/Z; format: cell-based, human; conditions: T/S/Z 8 h
Text: In addition to TNF-induced necroptosis, it is known that TLR3 or TLR4 activation can also trigger necroptosis. We further evaluated the effects of PK6 and PK68 on TLR3- and TLR4-mediated necroptosis induced by poly(I:C)/z-VAD and LPS/z-VAD, respectively. […] To investigate the molecular mechanism of PK series-mediated necroptosis inhibition, we examined the effects of these compounds on the major steps of necroptotic signaling, including activation of RIPK1, RIPK3, and MLKL. […] It has been shown previously that RIPK3 activation leads to the formation of RIPK3 puncta during necroptosis.
Fig. 3 PK6 and PK68 block cellular activation of RIPK1, RIPK3, and MLKL upon necroptotic stimuli. a, b Bone marrow-derived macrophages from C57BL/6 mice or rat were pretreated with DMSO, PK6(10 μM), or PK68 (100 nM) for 1 h and subsequently treated with indicated stimuli for 24–30 h. Cell viability was determined by measuring ATP levels. L, LPS (20 ng/ml); P, poly(I:C) (50 μg/ml); S (100 nM); Z (10 μM). Data are represented as the mean ± standard deviation of triplicates. c HT-29 cells were treated with the indicated compound for 1 h prior to the treatment of T (40 ng/ml), S (100 nM), and Z (20 μM) for additional 8 h. […] The distribution of RIPK3 was detected by immunofluorescence. *P < 0.05. **P < 0.01. ***P < 0.001 […]

[3] = tested on: NF-κB activation in HT-29 cells; assay: TNF-induced NF-κB activation, western blot of IκB-α and phospho-IκB-α; format: cell-based, human; conditions: TNF-α 40 ng/ml 15 min
Method: (§1) Further, we evaluated the selectivity of PK68 against a panel of 369 kinases provided by Reaction Biology (at 1000 nM). […] In addition, we followed on some of the active “hits” from the kinome scan. PK68 was tested against TNIK and TRKA by a reputable CRO company. […] RIPK1 is known to mediate NF-κB activation independently of its kinase activity. […] It has been shown that homodimerization of RIPK3 or MLKL induced by the dimerizer leads to necroptosis bypassing the upstream signals[10],[37]. […] This dimerized RIPK3-induced necroptosis was blocked by RIPK3 inhibitor GSK873 but was not blocked by the RIPK1 inhibitor necrostatin-1. […] (Fig. 4e).
HT-29 cells were pretreated with indicated compounds for 1h prior to stimulation with TNF-α (40ng/ml) for 15 minutes. The levels of IκB-α and phosphor-IκB-α were analyzed by western blot analysis. The NF-κB inhibitor BMS-345541 was used as a positive control.

HeLa-MLKL (1–190) cells = assay: MLKL dimerization-induced cell death (AP20187); format: cell-based, human; conditions: AP20187 100 nM, 24 h
Method: Recombinant proteins were incubated with PK6 and PK68 as indicated. […] NIH3T3-RIPK3 cells were pretreated with indicated compounds for 1 h and subsequently treated with T (40 ng/ml)/S (100 nM)/Z (20 μM) or AP20187 (100 nM) for 24 h. Cell viability was determined by measuring ATP levels. e PK6 and PK68 have no effect on MLKL dimerization-induced cell death in HeLa-MLKL (1–190) cells that stably express MLKL (1–190aa) fused to DmrB. HeLa-MLKL (1–190) cells were pretreated with indicated compounds for 1 h and subsequently treated with AP20187 (100 nM) for 24 h. Cell viability was determined by measuring ATP levels.
as §1
The cell viability was analyzed by using the CellTiter-Glo Luminescent Cell Viability Assay kit following the manufacturer’s instructions (Promega). Luminescence was measured with SpectraMax i3x (Molecular Devices).

Row | SMILES | protection against TNFα-induced lethal shock [1] | phosphorylation of RIPK1, RIPK3, and MLKL [2] | TNF-induced NF-κB activation [3] | polymerized MLKL-induced necroptosis (HeLa-MLKL (1–190) cells) | TNFα-induced temperature loss ([1]; 1 mg/kg ip) | TNF-induced damage of the colon ([1]; 1 mg/kg, 4 h after TNF-α) | production of proinflammatory cytokines including IL-1β ([1]; 1 mg/kg, serum 4 h after TNF-α)
1 | CC(=O)Nc1nc2ccc(-c3cnc(Cl)c(NC(=O)Cc4ccccc4)c3)cc2s1 [PK6, N-(5-(2-acetamidobenzo[d]thiazol-6-yl)-2-chloropyridin-3-yl)-2-phenylacetamide] | effective protection | completely abolished | no obvious effects; also recorded: no impact; also recorded: no effect | neither PK6 nor PK68 had any effect |  |  | 
2 | CC(=O)Nc1nc2ccc(-c3cnc(C)c(NC(=O)OC4CCCCC4)c3)cc2s1 [PK68, cyclohexyl (5-(2-acetamidobenzo[d]thiazol-6-yl)-2-methylpyridin-3-yl)carbamate] | effective protection | completely abolished | no obvious effects; also recorded: no impact; also recorded: no effect | neither PK6 nor PK68 had any effect | strongly reduced | attenuated | significantly ameliorated
